From patent US10632208B2, “Peptide-mediated drug delivery across epithelial barrier” (Purdue Research Foundation, priority 2017, dated 2020)
“Also recorded” adds a separate entry of the source.

What was measured:
[1] = system: L. monocytogenes; assay: Translocation of L. monocytogenes through polarized Caco-2 monolayers on Transwell filter-inserts; format: cell-based, Listeria monocytogenes; settings: for effect on translocation of the lap strain: 30 min pretreatment, BAY 10 μM or PDTC 100 μM
Method: Caco-2 cells were grown as monolayers on Transwell inserts with 3.0 μm pores (Corning-Costar) for up to 14-21 days. TEER was measured to monitor the monolayer integrity (Millicells Voltmeter, Millipore). A TEER value of at least 200 Ω/cm^2 (±10) was used as the basal value to monitor the monolayer integrity. Bacterial cells were washed three times in PBS and resuspended in DMEM-FBS (10%) at a MOI of ˜50 and were added to the apical side of the Transwell system, and after 2 h incubation period at 37° C. in 5% CO2, the liquid was collected from the basal well, and then translocated bacteria were enumerated by plating (Burkholder and Bhunia, 2010). For analysis of FD4 flux, non-metabolizable 4 kDa FITC-labeled dextran (FD4; 5 mg/ml, Sigma-Aldrich) was added with bacteria (MOI, ˜50) resuspended in DMEM-FBS (10%) and added to the apical side. After 2 h incubation at 37° C. in 5% CO2, the liquid was collected from the basal well and fluorescence was measured (Em: 485 nm; Ex: 520 nm; Spectramax, Molecular Devices). For pharmacological inhibition treatments, PDTC (100 μM for 30 min pre-treatment; R&D Systems), Bay-11-7085 (10 μM for 30 min pre-treatment; Sigma-Aldrich), ML-9 (20 μM for 30 min pre-treatment; Sigma-Aldrich), PIK (150 μM, 30 min-pre-treatment and kept during 2-h infection) (Zolotarevsky et al., 2002), and Cytochalasin D (1 μg/mL for 1 h; Sigma-Aldrich) were used separately.
For re-association of externally added LAP to the lap^− mutant, bacteria were harvested from 1 ml of overnight grown culture, and the pellet was washed three times in PBS before the addition of 1 or 2 μg/mL of purified LAP. The mixture was incubated for 30 min at 30° C. with continuous shaking and then pelleted, washed five times in the PBS, resuspended in DMEM, and used in the aforementioned translocation assay.

[2] = system: L. monocytogenes; assay: Intracellular invasion of L. monocytogenes in Caco-2 cells (gentamicin protection); format: cell-based, Listeria monocytogenes
Method: For bacterial invasion analysis, monolayers were washed with PBS after 1 h of infection (MOI, ˜50) and incubated with DMEM-FBS (10%) containing gentamicin (50 μg/mL) for 1 h. Caco-2 cells were lysed with 0.1% Triton X, and the internalized bacteria were enumerated by plating.

[3] = system: Caco-2 cell monolayers; assay: Transepithelial electrical resistance (TEER) of Caco-2 monolayers on Transwell inserts; format: cell-based, human; settings: for effect on Caco-2 TEER in LAP-treated cells: BAY 10 μM or PDTC 100 μM
[4] = system: occludin, claudin-1 and E-cadherin; assay: Immunoblot of junctional proteins in detergent-insoluble fraction of Caco-2 cells; format: cell-based, human
Method: (§1) To extract the proteins from Caco-2 cells, cells were seeded in 6-well plates for 14-21 days. Following treatment, the cells were washed, scraped from the bottom of 6-well plates, suspended in PBS, and pelleted by centrifugation. Total protein from Caco-2 cells was extracted using the M-PER Extraction Kit (Thermo Fisher Scientific). Detergent-insoluble (membrane) and detergent-soluble (cytosolic) proteins were isolated using a Mem-Per Eukaryotic Protein Extraction Kit (Thermo Fisher Scientific) while the cytosolic and nuclear proteins were extracted using NE-PER Extraction Reagent (Thermo Fisher Scientific). To extract proteins from ileal epithelial cells, the epithelial cell fraction from ileal tissues were isolated as described above and the detergent-insoluble and the detergent-soluble proteins were isolated using a Mem-Per Eukaryotic Protein Extraction Kit.
(§2) To extract total protein from intact bacterial cells, sample solvent buffer and sonication (3 cycles of 20 min each) were used. […] The protein concentrations were determined by BCA assay (Thermo Fisher Scientific), and separated on SDS-PAGE gels (10-12.5% polyacrylamide) and electro-transferred to polyvinylidene difluoride (PVDF) membrane (Millipore). […] To compare the reaction intensities, the average band densities were determined using Quantity One software (Bio-Rad). […]

[5] = system: NF-κB(p65); assay: Immunoblot of NF-κB activation in Caco-2 cytoplasmic and nuclear extracts; format: cell-based, human; settings: BAY 10 μM or PDTC 100 μM, Caco-2 cells
Method: as §1
To extract total protein from intact bacterial cells, sample solvent buffer and sonication (3 cycles of […]) were used. To isolate the cell wall-associated proteins bacterial pellets were resuspended in 0.5 ml protein extraction buffer (0.5% SDS, 10 mM Tris at pH 6.9), and incubated at 37° C. for 30 min with agitation. The samples were centrifuged (14,000×g, 10 min, 4° C.), and the supernatants (containing cell wall-associated proteins) were retained. Halt proteases and phosphatase inhibitors (Thermo Fisher Scientific) were used during all of the protein extraction procedures. The protein concentrations were determined by BCA assay (Thermo Fisher Scientific), and separated on SDS-PAGE gels (10-12.5% polyacrylamide) and electro-transferred to polyvinylidene difluoride (PVDF) membrane (Millipore). The membranes were then blocked in 5% nonfat dry milk (NFDM) in 0.1 M Tris-buffered saline, pH 7.5 (TBS) containing 0.1% Tween 20 (TBST) for at least 1 h. All of the primary antibodies were diluted in 5% bovine serum albumin (BSA) or 5% NFDM in TBST and incubated overnight. Secondary antibodies (1:2000 in 5% NFDM in TBST) incubated for 1 h at 37° C., and a chemiluminescence method was performed using LumiGLO reagent (Cell Signaling). The membranes were exposed to X-ray films or visualized using the Chemi-Doc XRS system (Bio-Rad). To immunoprobe the same membrane with another antibody, the originally bound antibodies from the membranes were removed by incubating the membranes in Restore Western Blot Stripping Buffer (Thermo Fisher Scientific) according to the manufacturer's protocol. To compare the reaction intensities, the average band densities were determined using Quantity One software (Bio-Rad). Densitometry reports represent the mean±SEM after normalization to the loading control and is presented as % change of protein with the average for untreated cells (control) set at 100%. Immunoblots and densitometric reports are representative of 2-3 independent experiments.

[6] = system: MLCK; assay: Immunoblot of MLCK and P-MLC in whole-cell Caco-2 lysates; format: cell-based, human; settings: pre-treatment prior to infection with WT strain, relative to uninfected cells
Method: as §1, §2

SMILES	effect on translocation of WT and ΔinlA strains ([1]; PIK 150 μM or ML-9 20 μM, MOI 50)	effect on intracellular invasion of the WT strain [2]	effect of the inhibitor alone on Caco-2 TEER [3]	increase of translocation of WT ([1]; cytochalasin D 1 μg/mL for 1 h)	effect on Caco-2 TEER in LAP-treated cells [3]	effect on translocation of the lap strain [1]	effect of the inhibitor alone on expression of junctional proteins [4]	effect on L. monocytogenes-induced redistribution of occludin, claudin-1 and E-cadherin ([4]; PIK 150 μM or BAY 10 μM, 30 min, prior to WT infection (MOI 50, 45 min))	effect on LAP-mediated NF-κB activation [5]	levels of MLCK and P-MLC in whole cell lysate [6]
O=S(=O)(c1cccc2c(Cl)cccc12)N1CCCNCC1 [ML-9]	significantly reduced	none of these inhibitors, affected the intracellular invasion capabilities	–	–	–	–	–	–	–	–
C=C1[C@@H](C)[C@H]2[C@H](Cc3ccccc3)NC(=O)[C@]23[C@H](OC(C)=O)/C=C/[C@@](C)(O)C(=O)[C@@H](C)C/C=C/[C@H]3[C@@H]1O [Cytochalasin D]	–	low	very low	approximately 2.5 fold	–	–	–	–	–	–
CC(C)(C)c1ccc(S(=O)(=O)/C=C/C#N)cc1 [BAY, BAY 11-7085]	–	did not affect	–	–	restored	no apparent effect	no effect	prevented; also recorded: Restoration	inhibited	unchanged levels
S=C(S)N1CCCC1 [PDTC, pyrrolidine dithiocarbamate]	–	did not affect	did not affect	–	restored	no apparent effect	–	–	inhibited	–
